≈ marks a conversion by molar mass, not a printed value. Calls of active or inactive are those of the source. The calls are words filed in the database; no cut-off is given here.
Tests used:
[1] = Antioxidant activity assessed as DPPH radical scavenging activity at 8 uM relative to control; format: functional
[2] = Antioxidant activity assessed as DPPH radical scavenging activity; format: functional
[3] = Antioxidant activity assessed as ABTS radical scavenging activity at 8 uM relative to control; format: functional
[4] = Antioxidant activity assessed as ABTS radical scavenging activity; format: functional
[5] = Antioxidant activity assessed as oxygen radical scavenging by measuring trolox equivalents; format: functional
SH-SY5Y [6] = assay: Neuroprotective activity against OGD/R induced cell injury in human SH-SY5Y cells assessed as increase in cell survival rate at 1 uM (reference value: 63.22 +/- 2.12%); format: functional; conditions: read-out: Survival
[7] = Antioxidant activity assessed as DPPH radical scavenging activity measured after 30 mins; format: functional
SH-SY5Y [8] = assay: Neuroprotective activity against OGD/R induced cell injury in human SH-SY5Y cells assessed as reduction in cell crumpling at 1 uM pretreated with OGD/R for 4 hrs followed by compound addition and measured after 24 hrs by light microscopic analysis; format: functional, cell-based
SH-SY5Y [9] = assay: Neuroprotective activity against OGD/R induced cell injury in human SH-SY5Y cells assessed as reduction in cell shrinkage at 1 uM pretreated with OGD/R for 4 hrs followed by compound addition and measured after 24 hrs by light microscopic analysis; format: functional, cell-based
[10] = Metal chelating activity assessed as Cu2+ chelation by UV-Vis spectroscopy
Mus musculus [11] = assay: Neuroprotective activity against tMCAO- induced brain injury in ICR mouse model assessed as reduction in infarct volume at 10 mg/kg, ip (reference value: 43.1%); format: functional; parameters: scale not given: the % may be the effect or the level left
Mus musculus [12] = organism: Mus musculus; assay: Neuroprotective activity against tMCAO- induced brain injury in ICR mouse model assessed as appearance of tightly arranged neuronal cells in CA1 region by H and E staining based assay; format: functional, organism-based
Mus musculus [13] = assay: Neuroprotective activity against tMCAO- induced brain injury in ICR mouse model assessed as restoration of pyramidal cells size at 10 mg/kg, ip by H and E staining based assay; format: functional, organism-based
Mus musculus [14] = assay: Neuroprotective activity against tMCAO- induced brain injury in ICR mouse model assessed as restoration of pyramidal cells morphology at 10 mg/kg, ip by H and E staining based assay; format: functional, organism-based
Mus musculus [15] = assay: Neuroprotective activity against tMCAO- induced brain injury in ICR mouse model assessed as appearance of regularly arranged neuronal nissl bodies at 10 mg/kg, ip by nissl staining based assay; format: functional, organism-based
Mus musculus [16] = assay: Neuroprotective activity against tMCAO- induced brain injury in ICR mouse model assessed as appearance of abundant nissl granules at 10 mg/kg, ip by nissl staining based assay; format: functional, organism-based
[17] = Antioxidant activity assessed as DPPH radical scavenging activity measured after 30 mins by spectrophotometry assay; format: functional

Structure (SMILES)	Activity [1]	IC50 ([2]; read-out: IC50)	Activity [3]	IC50 [4]	Activity [5]	viability at 1 µM (SH-SY5Y [6])	also measured
Oc1cc(C(F)(F)F)nn1-c1ncccn1	36.4%	45.3 µM	63.2%	13.9 µM	1.19	72.7%	–
Cc1cc(O)n(-c2ccc(F)cn2)n1	21.4%	19.8 µM	51.6%	13.8 µM	1.06	89.5%	–
Cc1cc(O)n(-c2ccc(Cl)cn2)n1	53%	18.8 µM	52%	14.8 µM	1.27	73.4%	–
C[C@H]1[C@H](C)CC[C@]2(C(=O)O)CC[C@]3(C)C(=CC[C@@H]4[C@@]5(C)CC[C@H](O)C(C)(C)[C@@H]5CC[C@]43C)[C@H]12 [URSOLIC ACID]	–	–	–	–	–	–	IC50 [2]: 59 µg/mL
O=C(O)C1CS[C@@H](c2cccc(F)c2F)N1 (stereo not given in full)	–	830 µM	–	–	–	–	–
O=C1S/C(=C\c2cn(-c3ccccc3)nc2-c2ccc(O)cc2)C(=O)N1Cc1ccccc1	–	–	–	–	–	–	IC50 [7]: 110.8 µg/mL (≈ 244 µM)
Oc1cc(C(F)(F)F)nn1-c1ncccc1C(F)(F)F	34.7%	> 120 µM	36.1%	35.5 µM	1.22	70.8%	–
Cc1cc(O)n(-c2ncccc2C(F)(F)F)n1	2.85%	–	5.92%	–	0.98	77.4%	–
CC1=NN(c2ncc(Cl)cc2Cl)C(=O)C1	6.73%	> 120 µM	31.9%	19.4 µM	1.42	82.5%	–
Cc1cc(O)n(-c2ncccc2C)n1	49.9%	16.1 µM	54.7%	13.7 µM	1.88	87%	Activity (SH-SY5Y [8]): Active; Activity (SH-SY5Y [9]): Active; Activity [10]: Active; Activity (Mus musculus [11]): 24.9%; Activity (Mus musculus [12]): Active; Activity (Mus musculus [13]): Active; Activity (Mus musculus [14]): Active; Activity (Mus musculus [15]): Active; Activity (Mus musculus [16]): Active
OCc1ccc(-n2nc(C(F)(F)F)cc2O)nc1	40.4%	63.9 µM	57.1%	28 µM	0.91	78.1%	Activity (Mus musculus [11]): Not active; Showed Weak Activity
Oc1cc(C(F)(F)F)nn1-c1ccc(F)cn1	35.7%	43.1 µM	58.3%	16.6 µM	1.19	71.8%	–
O=C(c1cc(O)c(O)c(O)c1)c1cc(O)c(Br)cc1O	–	–	–	–	–	–	IC50 [2]: 14.4 µg/mL
Oc1cc(C(F)(F)F)nn1-c1ncccc1Cl	28.1%	> 120 µM	40.4%	19.5 µM	1.13	78.8%	–
Oc1cc(C(F)(F)F)nn1-c1ncc(F)cn1	30.9%	45.5 µM	65.4%	16.3 µM	1.07	80.5%	–
O=C(O)/C=C/c1ccc(O)c(O)c1 [CAFFEIC ACID]	–	–	–	–	–	–	IC50 [2]: 0.8 µg/mL
Cc1cc(O)n(-c2ccc(C(F)(F)F)cn2)n1	30.3%	15.2 µM	55%	16.1 µM	1.14	79.1%	–
Cc1cc(O)n(-c2ccc(CO)cn2)n1	34.7%	32 µM	46.4%	20.5 µM	0.8	81.7%	–
Cc1c(C)c2c(c(C)c1O)CCC(C)(C(=O)O)O2 (stereo not given)	–	–	–	–	1	–	–
Oc1ccc(/C=C/c2cc(O)cc(O)c2)cc1 [RESVERATROL]	–	–	–	–	–	–	IC50 [17]: 65 µM
COc1cc(/C=C/C(=O)CC(=O)/C=C/c2ccc(O)c(OC)c2)ccc1O [CURCUMIN]	–	–	–	–	–	–	IC50 [2]: 28 µg/mL
Cc1cc(O)n(-c2cccc(CO)n2)n1	28.5%	59.5 µM	49.6%	18.9 µM	1.06	75.4%	–
Cc1cc(O)n(-c2ncccc2Cl)n1	2.36%	–	4.56%	–	0.9	71.5%	–
Cc1cc(O)n(-c2ccccn2)n1	35.1%	15.4 µM	69.1%	12.3 µM	1.27	81.5%	–
CC1=NN(c2ccccc2)C(=O)C1 [EDARAVONE]	21.4%	42.5 µM	52.3%	15.8 µM	1.46	72.2%	–
Oc1cc(C(F)(F)F)nn1-c1ccc(C(F)(F)F)cn1	28.4%	35.8 µM	68.1%	14.8 µM	1.1	84.5%	–
Cc1nc(C)c(-n2nc(C(F)(F)F)cc2O)nc1C	30.6%	> 120 µM	55.6%	19.7 µM	1.34	75.4%	–
Oc1cc(C(F)(F)F)nn1-c1ncc(Cl)cc1Cl	29.4%	> 120 µM	46%	20.4 µM	1.3	76.6%	–
Cc1cc(C)nc(-n2nc(C)cc2O)n1	51.6%	18.5 µM	63.9%	14.6 µM	1.56	74.7%	–

Source: ChEMBL document CHEMBL6083244, “Identification of 3-methyl-1-(3-methylpyridin-2-yl)-1H-pyrazol-5-ol as promising neuroprotective agent” (Bioorg Med Chem Lett, 2024)
